# From patent US10626081B2, “Farnesoid X receptor agonists and uses thereof” (Metacrine, Inc., priority 2015, dated 2020)
# Biological target: T1, FXR (Homo sapiens, UniProt Q96RI1)
# T1 construct: expressed in transfected cells; host or cells: CV-1 cells
# T1 sequence (Q96RI1 1-486): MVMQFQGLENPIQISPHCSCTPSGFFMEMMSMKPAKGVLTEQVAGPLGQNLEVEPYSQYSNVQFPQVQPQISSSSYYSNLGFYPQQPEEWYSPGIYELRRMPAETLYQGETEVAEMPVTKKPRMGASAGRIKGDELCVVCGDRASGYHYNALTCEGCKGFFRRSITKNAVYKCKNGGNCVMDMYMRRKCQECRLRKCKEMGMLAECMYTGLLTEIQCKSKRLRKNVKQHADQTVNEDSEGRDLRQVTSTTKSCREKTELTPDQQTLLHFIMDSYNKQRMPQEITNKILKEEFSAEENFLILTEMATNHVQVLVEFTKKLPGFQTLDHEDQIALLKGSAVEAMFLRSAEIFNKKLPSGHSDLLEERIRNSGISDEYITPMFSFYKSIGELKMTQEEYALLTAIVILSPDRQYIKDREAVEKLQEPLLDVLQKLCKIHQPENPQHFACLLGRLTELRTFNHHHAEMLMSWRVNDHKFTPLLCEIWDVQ
# T1 sequence (P19793 1-462 partner): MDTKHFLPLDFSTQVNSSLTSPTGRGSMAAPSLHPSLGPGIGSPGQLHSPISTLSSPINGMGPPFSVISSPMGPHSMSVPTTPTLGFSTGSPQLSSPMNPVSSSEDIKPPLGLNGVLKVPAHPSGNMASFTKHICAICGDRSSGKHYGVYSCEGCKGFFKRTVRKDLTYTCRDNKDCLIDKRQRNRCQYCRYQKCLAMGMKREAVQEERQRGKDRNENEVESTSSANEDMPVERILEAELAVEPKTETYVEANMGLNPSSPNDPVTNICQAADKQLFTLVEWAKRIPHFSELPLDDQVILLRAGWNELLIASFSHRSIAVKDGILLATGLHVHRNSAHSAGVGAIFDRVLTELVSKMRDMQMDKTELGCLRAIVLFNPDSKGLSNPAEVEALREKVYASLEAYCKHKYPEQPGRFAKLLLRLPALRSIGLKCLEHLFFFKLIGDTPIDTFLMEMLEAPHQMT
# Assay: In Vitro FXR Assay (TK): TK-ECRE-luc reporter in transfected CV-1 cells
# Assay type: cell-based
# Details: CV-1 cells transfected with hFXR, hRXR, 18 h incubation, luminescence
# Experimental: Example B-2: In Vitro FXR Assay (TK)
# CV-1 cells were seeded at a density of 2,000,000 cells in a T175 flask with DMEM+10% charcoal double-stripped FBS and incubated at 37° C. in 5% CO2 for 18 h (O/N).
# After 18 h of incubation, the medium in the T175 flask was changed with fresh DMEM+10% charcoal super-stripped serum. In a polypropylene tube, 2500 μL OptiMEM (Life Technologies, Cat #31985-062) was combined with expression plasmids for hFXR, hRXR, TK-ECRE-luc and pCMX-YFP. The tube was then briefly vortexed and incubated at room temperature for 5 minutes. Transfection reagent (X-tremeGENE HP from Roche, Cat #06 366 236 001) was added to the OptiMEM/plasmid mixture vortexed and incubated at room temperature for 20 minutes. Following incubation, the transfection reagent/DNA mixture complex was added to cells in the T175 flask and the cells were incubated at 37° C. in 5% CO2 for 18 h (O/N).
# Compounds were serially diluted in DMSO and added to transfected CV-1 cells. The cells were then incubated for 18 hrs. The next day cells were lysed and examined for luminescence.
row,EC50 [nM],SMILES
1,1000 to 10000,"CN(C)c1ccc(-c2ccc(CN(C(=O)C3CCCCC3)c3cccc(/C=C/C(=O)OCC(F)(F)F)c3)cc2)cc1 [86.6, (E)-2,2,2-Trifluoroethyl 3-(3-(N-((4′-(dimethylamino)-[1,1′-biphenyl]-4-yl)methyl)cyclohexanecarboxamido)phenyl) acrylate]"
2,> 10000,"COC(=O)/C=C/c1cccc(N(Cc2ccc(-c3ccc(S(C)(=O)=O)c(Cl)c3)cc2)C(=O)C2CCCCC2)c1 [75.10, (E)-Methyl 3-(3-(N-((3′-chloro-4′-(methylsulfonyl)-[1,1′-biphenyl]-4-yl)methyl)cyclohexanecarboxamido)phenyl) acrylate]"
3,1000 to 10000,"COC(=O)/C=C/c1cccc(N(Cc2ccc(-c3ccc(N(C)S(C)(=O)=O)cc3)cc2)C(=O)C2CCCCC2)c1 [75.6, (E)-Methyl 3-(3-(N-((4′-(N-methylmethylsulfonamido)-[1,1′-biphenyl]-4-yl)methyl)cyclohexanecarboxamido)phenyl) acrylate]"
4,1000 to 10000,"COC(=O)/C=C/c1cccc(N(Cc2ccc(-c3ccc(N(C)C)cc3)cc2)C(=O)C2CCCOC2)c1 (stereo not drawn) [17.3, (E)-Methyl 3-(3-(N-((4′-(dimethylamino)-[1,1′-biphenyl]-4-yl)methyl)tetrahydro-2H-pyran-3-carboxamido)phenyl)acrylate]"
5,> 10000,"COC(=O)/C=C/c1cccc(N(Cc2ccc(-c3ccc(S(C)(=O)=O)c(F)c3)cc2)C(=O)C2CCCCC2)c1 [75.7, (E)-Methyl 3-(3-(N-((3′-fluoro-4′-(methylsulfonyl)-[1,1′-biphenyl]-4-yl)methyl)cyclohexanecarboxamido)phenyl) acrylate]"
6,1000 to 10000,"COC(=O)/C=C/c1cccc(N(Cc2ccc(-c3cccc(C(=O)OC)c3)cc2)C(=O)C2CCCCC2)c1 [62.2, (E)-Methyl 4′-((N-(3-(3-methoxy-3-oxoprop-1-en-1-yl)phenyl)cyclohexanecarboxamido)methyl)-[1,1′-biphenyl]-3-carboxylate]"
7,1000 to 10000,"COC(=O)/C=C/c1cc(C#N)cc(N(Cc2ccc(-c3ccc(N(C)C)cc3)cc2)C(=O)C2CCCCC2)c1 [86.9, (E)-Methyl 3-(3-cyano-5-(N-((4′-(dimethylamino)-[1,1′-biphenyl]-4-yl)methyl)cyclohexanecarboxamido)phenyl) acrylate]"
8,≤ 1000,"COC(=O)/C=C/c1cccc(N(Cc2ccc(-c3ccc(N(C)C)cc3)cc2)C(=O)C2CCCCO2)c1 (stereo not drawn) [17.1, (E)-Methyl 3-(3-(N-((4′-(dimethylamino)-[1,1′-biphenyl]-4-yl)methyl)tetrahydro-2H-pyran-2-carboxamido)phenyl)acrylate]"
9,> 10000,"COC(=O)/C=C/c1cccc(N(Cc2ccc(-c3ccc(CO)cc3)cc2)C(=O)C2CCCCC2)c1 [62.7, (E)-Methyl 3-(3-(N-((4′-(hydroxymethyl)-[1,1′-biphenyl]-4-yl)methyl)cyclohexanecarboxamido)phenyl) acrylate]"
10,≤ 1000,"COC(=O)/C=C/c1cccc(N(Cc2ccc(-c3ccc(N(C)C)cc3)cc2)C(=O)[C@H]2CC[C@H](NS(C)(=O)=O)CC2)c1 [98.2, trans-(E)-Methyl 3-(3-(N-((4′-(dimethylamino)-[1,1′-biphenyl]-4-yl)methyl)-4-(methylsulfonamido)cyclohexane-carboxamido)phenyl)acrylate]"
11,> 10000,"COC(=O)/C=C/c1cccc(N(Cc2ccc(-c3ccc4oncc4c3)cc2)C(=O)C2CCCCC2)c1 [75.15, (E)-Methyl 3-(3-(N-(4-(benzo[d]isoxazol-5-yl)benzyl)cyclohexanecarboxamido)phenyl) acrylate]"
12,1000 to 10000,"COC(=O)/C=C/c1cccc(N(Cc2ccc(-c3ccc(OC)c(C)c3)cc2)C(=O)C2CCN(C(=O)OC(C)(C)C)CC2)c1 [62.5, (E)-tert-Butyl 4-(((4′-methoxy-3′-methyl-[1,1′-biphenyl]-4-yl)methyl)(3-(3-methoxy-3-oxoprop-1-en-1-yl)phenyl)carbamoyl)piperidine-1-carboxylate]"
13,1000 to 10000,"COC(=O)/C=C/c1cccc(N(Cc2ccc(-c3cnc(N(C)C)cn3)cc2)C(=O)C2CCCCC2)c1 [75.4, (E)-Methyl 3-(3-(N-(4-(5-(dimethylamino)pyrazin-2-yl)benzyl)cyclohexanecarboxamido)phenyl) acrylate]"
14,≤ 1000,"COC(=O)/C=C/c1cccc(N(Cc2ccc(-c3ccc4c(c3)c(F)nn4C)cc2)C(=O)C2CCCCC2)c1 [75.18, (E)-Methyl 3-(3-(N-(4-(3-fluoro-1-methyl-1H-indazol-5-yl)benzyl)cyclohexanecarboxamido)phenyl) acrylate]"

# The remaining lines, values behind:
row,SMILES,EC50 [nM]
1,"COC(=O)/C=C/c1cccc(N(Cc2ccc(-c3ccc(N(C)C)cc3)cc2)C(=O)[C@H]2CC[C@H](S(C)(=O)=O)CC2)c1 [13.15, trans-(E)-methyl 3-(3-(N-((4′-(dimethylamino)-[1,1′-biphenyl]-4-yl)methyl)-4-(methylsulfonyl)cyclohexanecarboxamido)phenyl)acrylate]",1000 to 10000
2,"COC(=O)/C=C/c1cc(F)cc(N(Cc2ccc(-c3ccc(N(C)C)cc3)cc2)C(=O)C2CCCCC2)c1 [13.4, (E)-Methyl 3-(3-(N-((4′-(dimethylamino)-[1,1′-biphenyl]-4-yl)methyl)cyclohexanecarboxamido)-5-fluorophenyl)acrylate]",≤ 1000
3,"COC(=O)/C=C/c1cccc(N(Cc2ccc(-c3ccc(N(C)C)cc3)cc2)C(=O)[C@H]2CC[C@H](C(=O)O)CC2)c1 [13.16, trans-4-(((4′-(Dimethylamino)-[1,1′-biphenyl]-4-yl)methyl)(3-((E)-3-methoxy-3-oxoprop-1-en-1-yl)phenyl)carbamoyl) cyclohexanecarboxylic acid]",≤ 1000
4,"COC(=O)/C=C/c1cccc(N(Cc2ccc(-c3ccc(N(C)C)cc3)cc2)C(=O)[C@@H]2CCCC[C@@H]2O)c1 (relative stereo) [13.26, cis-(E)-Methyl 3-(3-(N-((4′-(dimethylamino)-[1,1′-biphenyl]-4-yl)methyl)-2-hydroxycyclohexanecarboxamido)phenyl)acrylate]",1000 to 10000
5,"COC(=O)/C=C/c1cccc(N(Cc2ccc(-c3ccc(N(C)C)cc3)cc2)C(=O)c2ccc(OCCO)cc2)c1 [13.22, (E)-Methyl 3-(3-(N-((4′-(dimethylamino)-[1,1′-biphenyl]-4-yl)methyl)-4-(2-hydroxyethoxy)benzamido)phenyl)acrylate]",≤ 1000
6,"COC(=O)/C=C/c1cccc(N(Cc2ccc(-c3ccc(N(C)C)cc3)cc2)C(=O)c2ccc(F)cc2)c1 [13.2, (E)-Methyl 3-(3-(N-((4′-(dimethylamino)-[1,1′-biphenyl]-4-yl)methyl)-4-fluorobenzamido)phenyl)acrylate]",1000 to 10000
7,"COC(=O)/C=C/c1cccc(N(Cc2ccc(-c3ccc(N(C)C)cc3)cc2)C(=O)[C@@H]2CCC[C@@H](O)C2)c1 (relative stereo) [13.28, trans-(E)-Methyl 3-(3-(N-((4′-(dimethylamino)-[1,1′-biphenyl]-4-yl)methyl)-3-hydroxycyclohexanecarboxamido)phenyl)acrylate]",> 10000
8,"COC(=O)/C=C/c1cccc(N(Cc2ccc(-c3ccc(N(C)C)cc3)cc2)C(=O)C2(C)CCOCC2)c1 [13.6, (E)-Methyl 3-(3-(N-((4′-(dimethylamino)-[1,1′-biphenyl]-4-yl)methyl)-4-methyltetrahydro-2H-pyran-4-carboxamido)phenyl)acrylate]",1000 to 10000
9,"COC(=O)/C=C/c1cc(F)cc(N(Cc2ccc(-c3ccc(N(C)C)cc3)cc2)C(=O)C2CC3CCC2C3)c1 (stereo not drawn) [13.5, (E)-Methyl 3-(3-(N-((4′-(dimethylamino)-[1,1′-biphenyl]-4-yl)methyl)bicyclo[2.2.1]heptane-2-carboxamido)-5-fluorophenyl)acrylate]",≤ 1000
10,"COC(=O)/C=C/c1cccc(N(Cc2ccc(-c3ccc(N(C)C)cc3)cc2)C(=O)C2CCC([S+](C)[O-])CC2)c1 (stereo not drawn) [13.20, (E)-Methyl 3-(3-(N-((4′-(dimethylamino)-[1,1′-biphenyl]-4-yl)methyl)-4-(methylsulfinyl)cyclohexanecarboxamido)phenyl)acrylate]",1000 to 10000
